The results in this text go back to ChEMBL document CHEMBL1201862, “PubChem BioAssay data set” (2004).

Some test systems named below: HCT-116; HCT-15; IGROV-1; MDA-MB-231; MDA-MB-435; NCI-H226; NCI/ADR-RES; OVCAR-3; OVCAR-4; PC-3; RXF 393; SF-268; SF-539; SN12C; SR; SW-620; T47D; TK-10; U-251; HCC 2998.
Common to all, as to experiment: DTP human tumour cell line panel, 48 h

Molecules are shown by their SMILES.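 Following 48 hours of exposure in 96-well plates, responses at five concentrations were used to interpolate endpoints linearly. Here, GI50 denotes the concentration required for 50% inhibition of growth.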 Calls of active or inactive are those of the source. Rule as the data show it: active = GI50 up to about 1.1 µM and inactive = higher.

Usually GI50 stands for the concentration giving 50% growth inhibition. Consider `CCc1oc2ccccc2c1C(=O)c1cc(Br)c(O)c(Br)c1` [BENZBROMARONE], for which the GI50 in the experiment on HCT-116 is 22.4 µM (inactive); in the experiment with HCT-15, 27.6 µM; with IGROV-1, 33.7 µM (inactive); with MDA-MB-231, 20.5 µM (inactive); in the experiment on MDA-MB-435, 29.7 µM (inactive); in the experiment with NCI-H226, 22.1 µM (inactive). In addition, the GI50 was 31.6 µM (inactive) in the experiment with NCI/ADR-RES; 18.2 µM (inactive) in the experiment with OVCAR-3; 30 µM (inactive) in the experiment with OVCAR-4; 20 µM (inactive) in the experiment with PC-3; 15.3 µM (inactive) in the experiment on RXF 393; 28.1 µM (inactive) in the experiment with SF-268. In addition, the GI50 in the experiment on SF-539 is 17.1 µM (inactive); in the experiment on SN12C it was 26 µM (inactive); in the experiment on SR, 23.5 µM (inactive); in the experiment on SW-620, 35.6 µM (inactive); with T47D, 19.9 µM (inactive); in the experiment with TK-10, 24.7 µM (inactive). Moreover, the GI50 in the experiment with U-251 is 17.3 µM (inactive).
Regarding `O=C(/C=C/c1ccc2c(c1)OCO2)c1ccccc(=O)c1O`, the GI50 in the experiment on HCT-116 is 6.05 µM (inactive); in the experiment with HCT-15, 3.85 µM; in the experiment on IGROV-1 it was 5.77 µM (inactive); in the experiment on MDA-MB-231, 37.9 µM (inactive); with MDA-MB-435 it was 13.9 µM (inactive); with NCI-H226, 35.6 µM (inactive). Moreover, the GI50 is 2.08 µM (inactive) with NCI/ADR-RES; 10.7 µM (inactive) with OVCAR-3; 26.5 µM (inactive) in the experiment on OVCAR-4; 21.5 µM (inactive) in the experiment on PC-3; 3.42 µM (inactive) in the experiment with SF-268; 21.7 µM (inactive) in the experiment on SN12C. The GI50 is > 100 µM (inactive) with SR; 12 µM (inactive) in the experiment on SW-620; 20.9 µM (inactive) in the experiment on T47D; 18.8 µM (inactive) with TK-10; 15.9 µM (inactive) in the experiment on U-251.
`O=C(NNC(=S)Nc1ccccc1)c1csc(NC(=S)NC2CCCCC2)n1`: the GI50 in the experiment with HCC 2998 is 10.5 µM (inactive); in the experiment on HCT-116, 67.1 µM (inactive); with HCT-15, 33.3 µM; in the experiment with IGROV-1, 29.5 µM (inactive); with MDA-MB-231, 46.3 µM (inactive); with MDA-MB-435 it was 35.5 µM (inactive). Moreover, the GI50 with NCI-H226 is 9.59 µM (inactive); in the experiment on NCI/ADR-RES it was 85.7 µM (inactive); in the experiment on OVCAR-3 it was 87.5 µM (inactive); in the experiment on PC-3, 62.4 µM (inactive); in the experiment with SF-268, 99.3 µM (inactive); in the experiment with SF-539 it was 77.4 µM (inactive). Also, the GI50 was 91.4 µM (inactive) in the experiment with SN12C; 49.5 µM (inactive) with SR; 52.7 µM (inactive) in the experiment with SW-620; 36.9 µM (inactive) in the experiment with T47D; > 100 µM (inactive) with TK-10; 48.4 µM (inactive) in the experiment with U-251.
Take `Cc1ccc([N+](=O)[O-])cc1S(=O)(=O)Nc1ccc(C2=NN(C(=O)c3ccccc3)C(c3ccccc3O)C2)cc1` (stereo unspecified): the GI50 in the experiment on HCT-116 was 11.4 µM (inactive); in the experiment on HCT-15 it was 13.2 µM; in the experiment on IGROV-1 it was 10.2 µM (inactive); in the experiment on MDA-MB-231, 15.7 µM (inactive); in the experiment on MDA-MB-435, 31.2 µM (inactive); with NCI-H226, 14.9 µM (inactive). Also, the GI50 in the experiment with NCI/ADR-RES was 27 µM (inactive); with OVCAR-3, 17 µM (inactive); in the experiment on OVCAR-4, 15.4 µM (inactive); in the experiment with PC-3 it was 13.2 µM (inactive); in the experiment on RXF 393, 12.3 µM (inactive); in the experiment on SF-268 it was 12.8 µM (inactive). Moreover, the GI50 with SF-539 was 17.3 µM (inactive); in the experiment with SN12C, 13.5 µM (inactive); in the experiment on SR, 21.2 µM (inactive); in the experiment on SW-620 it was 30.9 µM (inactive); in the experiment on T47D, 11.8 µM (inactive); in the experiment with TK-10, 13.7 µM (inactive). Further, the GI50 in the experiment with U-251 was 16.5 µM (inactive).
As for `Nc1nc(Nc2ccc(Cl)cc2)sc1C(=O)c1cccs1`, the GI50 was 14.7 µM (inactive) in the experiment on HCT-116; more than 100 µM in the experiment with HCT-15; 39.6 µM (inactive) in the experiment on IGROV-1; 40 µM (inactive) with MDA-MB-231; > 100 µM (inactive) in the experiment with MDA-MB-435; 24.7 µM (inactive) in the experiment with NCI-H226. In addition, the GI50 is 50.6 µM (inactive) in the experiment on NCI/ADR-RES; 5.57 µM (inactive) in the experiment with OVCAR-3; 25.9 µM (inactive) in the experiment on OVCAR-4; > 100 µM (inactive) in the experiment with PC-3; 17.2 µM (inactive) in the experiment with RXF 393; 28.7 µM (inactive) in the experiment with SF-268. Further, the GI50 with SF-539 was 21.6 µM (inactive); in the experiment on SN12C it was 21 µM (inactive); in the experiment on SR it was 2.4 µM (inactive); in the experiment with SW-620, 59 µM (inactive); in the experiment with T47D, 77.8 µM (inactive); in the experiment on TK-10 it was 13.1 µM (inactive). The GI50 in the experiment on U-251 was 14.7 µM (inactive).
Turning to `COc1cc(/C=C2\N=C(c3ccccc3)N(c3nc4c(OC)ccc(OC)c4s3)C2=O)ccc1O`, the GI50 in the experiment with HCC 2998 is 33.8 µM (inactive); in the experiment on HCT-116, 95.9 µM (inactive); in the experiment with HCT-15, 70.1 µM; in the experiment with IGROV-1 it was 46.8 µM (inactive); with MDA-MB-231, 45.7 µM (inactive); with MDA-MB-435 it was 20.1 µM (inactive). The GI50 in the experiment with NCI/ADR-RES is > 100 µM (inactive); with OVCAR-3, 37.1 µM (inactive); with PC-3 it was 32.4 µM (inactive); with RXF 393 it was 11.1 µM (inactive); in the experiment on SF-268, 39.1 µM (inactive); with SF-539, 57.9 µM (inactive). The GI50 was > 100 µM (inactive) in the experiment on SN12C; 30 µM (inactive) with SR; 42.2 µM (inactive) with SW-620; 5.47 µM (inactive) with T47D; 58.1 µM (inactive) with TK-10; 29.9 µM (inactive) in the experiment with U-251.
Consider `COC(CNC(=O)CNC(=O)c1ccc(C(F)(F)F)cc1)OC`, for which the GI50 in the experiment on HCT-116 was > 100 µM (inactive); in the experiment with HCT-15, more than 100 µM; in the experiment with IGROV-1 it was > 100 µM (inactive); in the experiment with MDA-MB-231 it was > 100 µM (inactive); with MDA-MB-435 it was > 100 µM (inactive); in the experiment with NCI-H226 it was > 100 µM (inactive). Besides, the GI50 in the experiment with NCI/ADR-RES, in the experiment on PC-3, in the experiment on RXF 393, in the experiment on SF-268, with SF-539 and in the experiment with SN12C was > 100 µM (inactive) each time. The GI50 in the experiment on SR, in the experiment on SW-620, with T47D, in the experiment with TK-10 and in the experiment with U-251 was > 100 µM (inactive) in each case.
As for `O=c1[nH]c(=O)n(C2CC(O)C(CO)O2)cc1OCc1ccccc1` (stereo unspecified), the GI50 is > 100 µM (inactive) in the experiment on HCT-116; more than 100 µM with HCT-15; > 100 µM (inactive) in the experiment with IGROV-1; > 100 µM (inactive) in the experiment on MDA-MB-231; > 100 µM (inactive) in the experiment on MDA-MB-435; > 100 µM (inactive) with NCI-H226. Also, the GI50 with NCI/ADR-RES, in the experiment with OVCAR-3, in the experiment with OVCAR-4, with PC-3, in the experiment with RXF 393 and with SF-268 was > 100 µM (inactive) each time. Besides, the GI50 with SN12C, in the experiment on SR, with T47D, with TK-10 and in the experiment on U-251 was > 100 µM (inactive) throughout.
As to `Oc1c(OCc2nnc(CCCCCCCCc3nnc(COc4ccc5ccccc5c4O)n3Nc3ccccc3)n2Nc2ccccc2)ccc2ccccc12`, the GI50 was 5.26 µM (inactive) in the experiment with HCC 2998; 9.2 µM (inactive) in the experiment on HCT-116; 11.4 µM in the experiment on HCT-15; 12 µM (inactive) in the experiment on IGROV-1; 8.95 µM (inactive) in the experiment on MDA-MB-231; 2.46 µM (inactive) in the experiment on MDA-MB-435. Moreover, the GI50 in the experiment with NCI-H226 is 7.55 µM (inactive); in the experiment with NCI/ADR-RES it was 11 µM (inactive); in the experiment on OVCAR-3, 8.02 µM (inactive); in the experiment with OVCAR-4, 5.42 µM (inactive); in the experiment with PC-3 it was 2.1 µM (inactive); with RXF 393, 16.2 µM (inactive). Also, the GI50 with SF-268 is 10.7 µM (inactive); in the experiment with SF-539, 3.98 µM (inactive); in the experiment with SN12C it was 13.9 µM (inactive); with SW-620, 10.4 µM (inactive); in the experiment with T47D it was 6.43 µM (inactive); with TK-10 it was 11.1 µM (inactive). In addition, the GI50 in the experiment on U-251 is 12 µM (inactive).
As for `O=C1CCCc2c1c1c(n2Cc2ccccc2)-c2ccccc2C1=O`, the GI50 is 15.2 µM (inactive) with HCC 2998; 14.4 µM (inactive) in the experiment with HCT-116; 15 µM in the experiment on HCT-15; 18.9 µM (inactive) in the experiment with IGROV-1; 15.4 µM (inactive) with MDA-MB-231; 18.4 µM (inactive) with MDA-MB-435. The GI50 was 21.6 µM (inactive) in the experiment with NCI-H226; 21.1 µM (inactive) in the experiment with NCI/ADR-RES; 16 µM (inactive) in the experiment with OVCAR-3; 14 µM (inactive) with OVCAR-4; 27.4 µM (inactive) with PC-3; 29.9 µM (inactive) with RXF 393. Besides, the GI50 in the experiment with SF-268 is 22.2 µM (inactive); in the experiment with SF-539, 21.1 µM (inactive); in the experiment on SN12C, 19.3 µM (inactive); in the experiment on SW-620 it was 32.3 µM (inactive); in the experiment on T47D, 5.93 µM (inactive); in the experiment on TK-10, 10.5 µM (inactive). The GI50 in the experiment with U-251 was 20.7 µM (inactive).
As to `CN1C(=O)C(O)CC1c1cccc(C(F)(F)F)c1` (stereo unspecified), the GI50 in the experiment with HCC 2998 was > 100 µM (inactive); in the experiment with HCT-116, > 100 µM (inactive); in the experiment with HCT-15, more than 100 µM; in the experiment with IGROV-1 it was > 100 µM (inactive); in the experiment with MDA-MB-231, > 100 µM (inactive); in the experiment on MDA-MB-435, > 100 µM (inactive). In addition, the GI50 with NCI-H226, with NCI/ADR-RES, in the experiment with OVCAR-3, in the experiment on OVCAR-4, with PC-3 and with RXF 393 was > 100 µM (inactive) in each case. Also, the GI50 with SF-268, in the experiment on SF-539, in the experiment on SN12C, in the experiment with SW-620, with T47D and in the experiment on TK-10 was > 100 µM (inactive) each time. Also, in the experiment with U-251, the GI50 is > 100 µM (inactive).
